Data: publication PMC4421842 (Nature Communications, 2015)
In brackets after ≈: the same amount, converted by molar mass. Several values for one entry are separate records, joined by “and”; a condition that tells them apart may be missing. Identical values can stand only once. Entries after “also recorded” stand apart in the source; their conditions may differ. Like-named read-outs stand apart in the source and are kept apart here.

Key:
[1] = tested on: WT S. aureus (ATCC 29213, WT); test: microbe, parasite or virus in culture; type: cell-based; settings: WT GyrA and WT ParC, three independent replicates
MRSA clinical isolates = test: microbe, parasite or virus in culture; type: cell-based, S. aureus; settings: for MIC: Staphylococcus aureus, MRSA, read-out: MIC
Method: (§1) MRSA and P. aeruginosa isolates were from Cubist Pharmaceuticals (Lexington, MA). VRE isolates were from a previously published collection. E. coli strains were obtained either from ATCC or Professor Cari Vanderpool (UIUC). A. baumannii isolates were obtained from Dr John Quale[51].
Susceptibility testing was performed in triplicate, using the microdilution broth method as outlined by the Clinical and Laboratory Standards Institute[52]. Mueller Hinton (MH) broth was used.

E. faecalis = test: microbe, parasite or virus in culture; type: cell-based; settings: Enterococcus faecalis, E. faecalis
E. faecium = test: microbe, parasite or virus in culture; type: cell-based; settings: Enterococcus faecium, E. faecium
Ent. Spp. = test: MIC, microdilution broth, Ent. Spp. VRE clinical isolate; type: cell-based; settings: Enterococcus, C28036, gyrA Ser83Ile, parC Ser80Ile
Text: as §1
(§2) Mueller Hinton (MH) broth was used.

VRE clinical isolates = test: MIC, VRE clinical isolates panel (summary by GyrA mutation); type: cell-based, Enterococcus; settings: panel of VRE clinical isolates (n=22)
Text: as §1, §2

E. coli = test: microbe, parasite or virus in culture; type: cell-based; settings: Escherichia coli
Text: as §1, §2

P. aeruginosa = test: MIC, microdilution broth, P. aeruginosa; type: cell-based
Text: as §1, §2

A. baumannii = test: MIC, microdilution broth, A. baumannii; type: cell-based; settings: Acinetobacter baumannii
Text: as §1, §2

WT E. coli DNA gyrase = biological target: T1, WT E. coli DNA gyrase (Escherichia coli, UniProt P0AES4+P0AES6); type: biochemical; settings: DNA cleavage assay
T1 construct: His tag (pTRCHisA vector; purified on Ni-NTA); made in house; host or cells: E. coli One Shot BL21 Star (DE3)

S83R E. coli DNA gyrase = biological target: T2, S83R E. coli DNA gyrase (Escherichia coli, UniProt P0AES4+P0AES6, S83R); type: biochemical; settings: DNA cleavage assay
T2 construct: His tag (pTRCHisA vector; purified on Ni-NTA); made in house; host or cells: E. coli One Shot BL21 Star (DE3)

[2] = tested on: resistant strains of ATCC 29213; test: microbe, parasite or virus in culture; type: cell-based, S. aureus
S. aureus (ATCC 29213) = test: Resistant mutant generation (resistance frequency); type: cell-based; settings: low-level CIP-resistant strain 29213-C1
[3] = Pharmacokinetic assessment; type: in vivo, C57BL/6 mice; settings: for Cmax: read-out: Cmax (peak serum concentration)
Method: (§3) The animal studies (PK, in-vivo toxicity and in-vivo efficacy) were carried out in strict accordance with the recommendations in the Guide for the Care and Use of Laboratory Animals of the National Institutes of Health. […] In these studies, 10- to 12-week-old female C57BL/6 mice purchased from Charles River were used. DNM, DNM-2 and DNM-3 were formulated as slurries at 8.3 mg ml^−1 in 25% Cremophor RH40/water (v/v). Before beginning the pharmacokinetic assessment, mice were first tested for their ability to tolerate the DNM, DNM-2 and DNM-3 at 50 mg kg^−1 (p.o.). […] At specified time points, mice were killed and blood was collected, centrifuged and the serum was frozen at −80 °C until analysis. The proteins in a 50-μl aliquot of serum were precipitated by the addition of 50 μl of acetonitrile and the sample was centrifuged to remove the proteins. Serum concentrations of DNM, DNM-2 and DNM-3 were determined by HPLC. PK parameters were determined using GraphPad Prism Version 5.00 for Windows.

[4] = Tolerability in mice (maximal tolerated dose); type: in vivo
Method: as §3

physchem = settings: pH 7.4
Method: Three independent replicates of each compound were performed.

FQR MRSA (NRS3) = test: In-vivo efficacy, mouse sepsis model; settings: 50 mg kg^−1 oral gavage once daily for 10 days; n=15; Kaplan–Meier, log rank survival test
[5] = female, C57BL/6, mouse, in vivo, C57/BL6 mice, 50 mg kg-1 oral gavage, serum

CCn1c(=O)cc(C)c2cc3c(C)cc(=O)n4c3c(c21)OC4 [DNM-2]
MIC against S. aureus 29213 ([1]; ATCC 29213): 8 µg/mL (≈ 27 µM) | MIC ([1]; Staphylococcus aureus, ATCC29213, ATCC 29213, read-out: MIC against S. aureus 29213): 8 µg/mL (≈ 27 µM) | MIC (MRSA clinical isolates; strain SAU.1118): 2 µg/mL (≈ 6.75 µM) | MIC (MRSA clinical isolates; strain SAU.2996): 0.5 µg/mL (≈ 1.69 µM) | MIC (MRSA clinical isolates; strain SAU.3017): 4 µg/mL (≈ 13.5 µM) | MIC (MRSA clinical isolates; strain SAU.3021): 0.063 µg/mL (≈ 0.213 µM) | MIC (MRSA clinical isolates; strain SAU.3024): 0.125 µg/mL (≈ 0.422 µM) | MIC (MRSA clinical isolates; strain SAU.3025): 0.063 µg/mL (≈ 0.213 µM) | MIC (MRSA clinical isolates; strain SAU.42): 2 µg/mL (≈ 6.75 µM) | MIC (MRSA clinical isolates; strain SAU.555): 0.25 µg/mL (≈ 0.844 µM) | MIC (MRSA clinical isolates; strain SAU.669): 0.063 µg/mL (≈ 0.213 µM) | MIC (MRSA clinical isolates; strain SAU.846): 0.25 µg/mL (≈ 0.844 µM) | Sensitivity of MRSA clinical isolates (MRSA clinical isolates; panel of MRSA clinical isolates (n=21)): sensitive | MIC (E. faecalis; ATCC19433, ATCC 19433, gyrA WT, parC WT): 8 µg/mL (≈ 27 µM) | MIC (E. faecalis; ATCC29212, ATCC 29212, gyrA WT, parC WT): 8 µg/mL (≈ 27 µM) | MIC (E. faecalis; C21667, gyrA Ser83Ile, parC Ser80Ile): 0.5 µg/mL (≈ 1.69 µM) | MIC (E. faecalis; S206, gyrA Ser83 Arg, parC Ser80Ile): 2 µg/mL (≈ 6.75 µM) | MIC (E. faecium; C21190, gyrA Ser83 Arg, parC Ser80Ile): 8 µg/mL (≈ 27 µM) | MIC (E. faecium; C27282, gyrA Ser83 Arg, parC Ser80Arg): 4 µg/mL (≈ 13.5 µM) | MIC (E. faecium; C27569, gyrA Ser83Ile, parC Ser80Ile): 0.25 µg/mL (≈ 0.844 µM) | MIC (E. faecium; D1, gyrA Ser83Ile, parC Ser80Ile): 0.5 µg/mL (≈ 1.69 µM) | MIC (E. faecium; S34, gyrA Ser83Ile, parC Ser80 Arg): 1 µg/mL (≈ 3.37 µM) | MIC (E. faecium; S51, gyrA Ser83Ile, parC Ser80Ile): 0.5 µg/mL (≈ 1.69 µM) | MIC (E. faecium; S122, gyrA Ser83Ile, parC Ser80Ile): 0.5 µg/mL (≈ 1.69 µM) | MIC (E. faecium; S226, gyrA Ser83Ile, parC Ser80Ile): 0.5 µg/mL (≈ 1.69 µM) | MIC (E. faecium; S235, gyrA Ser83Ile, parC Ser80Ile): 0.5 µg/mL (≈ 1.69 µM) | MIC (E. faecium; S344, gyrA Ser83Ile, parC Ser80Ile): 0.5 µg/mL (≈ 1.69 µM) | MIC (E. faecium; S557, gyrA Ser83Ile, parC Ser80Ile): 0.25 µg/mL (≈ 0.844 µM) | MIC (E. faecium; SL152, gyrA Ser83Ile, parC Ser80Ile): 0.5 µg/mL (≈ 1.69 µM) | MIC (E. faecium; U63, gyrA Ser83 Arg, parC Ser80Ile): 4 µg/mL (≈ 13.5 µM) | MIC (E. faecium; U275, gyrA Ser83Cys Glu87Gly, parC Ser80Ile): 2 µg/mL (≈ 6.75 µM) | MIC (E. faecium; U464, gyrA Ser83 Arg, parC Ser80Ile): 2 µg/mL (≈ 6.75 µM) | MIC (E. faecium; U503, gyrA Ser83 Arg, parC Ser80Ile): 4 µg/mL (≈ 13.5 µM) | MIC (E. faecium; U563, gyrA Ser83 Arg, parC Ser80Ile): 2 µg/mL (≈ 6.75 µM) | MIC (Ent. Spp.): 0.5 µg/mL (≈ 1.69 µM) | Sensitivity of VRE clinical isolates (VRE clinical isolates): sensitive | MIC (E. coli; ATCC25922, E. coli ATCC 25922, gyrA none, parC none): > 24 µg/mL | MIC (E. coli; MG1655, E. coli MG1655): > 24 µg/mL | MIC (E. coli; MG1655, E. coli MG1655 ∆AcrB (permeabilized strain)): 2 µg/mL (≈ 6.75 µM) | MIC (P. aeruginosa; PA1586 (CIP resistant clinical isolate)): > 24 µg/mL | MIC (P. aeruginosa; Pseudomonas aeruginosa, P. aeruginosa PAO1, read-out: MIC): > 24 µg/mL | MIC (P. aeruginosa; Pseudomonas aeruginosa, read-out: MIC): > 24 µg/mL | MIC (A. baumannii): > 24 µg/mL | MIC (A. baumannii; ATCC19606, A. baumannii ATCC 19606, read-out: MIC): > 24 µg/mL | inhibition of WT DNA gyrase (increase in L or OC DNA) (WT E. coli DNA gyrase): poor inhibitors of WT DNA gyrase | inhibition of S83R DNA gyrase (S83R E. coli DNA gyrase): buildup of OC DNA similar to that seen with S83L DNA gyrase only at a slightly higher concentration or longer time points | MIC ([2]; Staphylococcus aureus, ATCC29213, high-level CIP-resistant strains, second step, S84L mutation in GyrA): 0.06 to 0.12 µg/mL (≈ 0.202 to 0.405 µM) | MIC ([2]; low-level CIP-resistant strains, first step, WT gyrA, mutation in ParC (for example E84K or S80F)): not sensitive | resistant colonies on treatment (S. aureus (ATCC 29213)): resistant colonies were observed | AUC [3, 5]: 44000 ng·h/mL | Tmax [3, 5]: 1.2 h | half-life [3, 5]: 0.9 h | Cmax ([3]; female, C57BL/6, mouse, in vivo, mice, 50 mg kg^−1 oral dose, serum): 42.6 µM | Cmax ([3]; female, C57BL/6, mouse, mice, 50 mg kg^−1 oral dose, serum): 12800 ng/mL and ~50 µM | oral bioavailability / serum exposure ([3]; mice, 50 mg kg^−1 oral dose): good bioavailability | area under the curve ([3]; mice, 50 mg kg^−1 oral dose, serum): 44000 ng·h/mL | tolerability ([4]; increasing doses, highest dose evaluated 50 mg kg^−1 by oral gavage): well tolerated up to the highest dose evaluated | maximal tolerated dose ([4]; oral gavage): > 50 mg/kg | solubility at 1 h (physchem): 121 µM (≈ 35.9 µg/mL) | survival of mice infected with MRSA (NRS3, FQR) (FQR MRSA (NRS3)): ***P<0.005 versus vehicle and CIP; also recorded: significant survival difference relative to both CIP and vehicle-treated control; also recorded: effective in treating mice infected with MRSA
